What was measured:
[1] = tested on: primary cultured cerebral neurons; assay: Neuron protective efficacy against Aβ toxicity (DAPI cell count); type: cell-based, rat; settings: Aβ 0.5 or 1 μM, HN-1703 0.1 or 0.5 μM, 12 or 24 hours; Aβ alone reduced viability by 50% or more; FIGS. 5A, 5B
Method: Primary cultured neurons from the cerebral cortex of rat embryos (E16) were treated with […] or 1 μM Aβ and 0.1 μM or 0.5 μM HN-1703 for 12 or 24 hours. Cell viability was evaluated by measuring the number of cells stained with DAPI.
Aβ has strong toxicity to neurons, and the death of neurons caused by Aβ accumulated in the brain is a major cause of Alzheimer's disease. To evaluate whether HN-1703 for inhibiting the mTOR signaling pathway and promoting autophagy may directly protect neurons from Aβ toxicity, an inhibitory effect of HN-1703 on Aβ-induced apoptosis of primary cultured cerebral neurons was evaluated, and the number of live cells stained with DAPI was quantified and shown in FIGS. 5A and 5B.

[2] = tested on: primary cultured hippocampal neurons; assay: LC3-eGFP puncta formation assay (autophagy promotion); type: cell-based, rat; settings: rapamycin and HN-1703 at 0.1 μM and 0.5 μM respectively, 12 hours; FIG. 3A
Method: Primary neurons culture was performed from the hippocampus of rat (SD, Orient Bio) embryonic 16-day (E16) embryos. The left and right hemispheres of the extracted brain were separated using sterile tweezers under a dissecting microscope, the meninges were peeled off, the hippocampus was cut with No. 55 tweezers, and neural progenitor cells were mechanically dissolved in a Ca^2+/Mg^2+-free HBSS (Invitrogen) solution by pipetting with a pasteur pipette (Falcon, 354647). Undissolved tissues or vascular cells were settled, and then a supernatant was taken to measure the cell number and the isolated cells were seeded at 19,000 cells/cm^2 in a 35 mm culture dish coated with poly-L-ornithine (sigma, P3655) and fibronectin (sigma, F4759). The cells were cultured using a serum-free N2 medium (growth medium) added with 10 ng/mL bFGF (Invitrogen) in a 5% CO2 incubator, and the culture medium was replaced after 6 hours and after 24 hours. After 2 days, when the cells proliferated twice or more, subculture was performed.
After 3 days of the primary neural progenitor cell culture, a process of subculturing with 0.05% trypsin was repeated twice, and DNA electroporation or transfection was performed before seeding. […]
The number of cell nuclei labeled with DAPI and the number of cells expressing green fluorescence by overlapping LC3-eGFP expression and DAPI labeling were measured. The number of eGFP-LC3 puncta was measured per cell, and the signal intensity of puncta was measured using a confocal laser microscope program. […]
The autophagy promoting effect of HN-1703 in neurons differentiated by culturing hippocampal neural progenitor cells from rat embryos (E16) was evaluated by performing an LC3-eGFP puncta formation assay. The neural progenitor cells into which an LC3-eGFP recombinant gene was introduced by electroporation were differentiated into neurons, treated with rapamycin and HN-1703 at concentrations of 0.1 μM and 0.5 μM for 12 hours, respectively, and the puncta of LC3-GFP were scanned with a confocal laser microscope (Zeiss, LSM800) to measure the fluorescence intensity of LC3-eGFP and the number of puncta, and the results were illustrated in FIG. 3. Specifically, FIG. 3A illustrates confocal scanning micrographs of LC3-eGFP puncta formation after treated primary cultured hippocampal neurons overexpressing an LC3-eGFP fusion protein with HN-1703, and quantifying the number and fluorescence intensity of LC3-eGFP puncta per cell, and FIG. 3B illustrates a result of LC3-II turnover analysis.

`COc1cc(OC)c2c(=O)c3cc4c(cc3oc2c1)OCO4` [HN-1703, 7,9-dimethoxy-10H-[1,3]dioxolo[4,5-b]xanthen-10-one] was tested, and the “cell viability (number of live cells stained with DAPI) under Aβ toxicity” value [1] was “viability was significantly increased”, the “increase of the number of LC3-eGFP puncta compared to a control group” value [2] was at least 85% and the “increase of the signal intensity of LC3-eGFP puncta compared to the control group” value [2] was at least 45%.
